# Measured values as given in ChEMBL document CHEMBL4387725, “In vitro inhibitory effects of cirsiliol on IL-6-induced STAT3 activation through anti-inflammatory activity” (Bioorg Med Chem Lett, 2019).
# The source made the active and inactive calls. The calls are words filed in the database; no cut-off is given here.
# How the values were obtained:
# Homo sapiens [1] = species on record: Homo sapiens; assay: Inhibition of IL-6 binding to human recombinant soluble IL-6R incubated for 2 hrs by solid phase ligand binding assay
# [2] = biological target: T1, Interleukin-6 receptor subunit beta (Homo sapiens) (UniProt P40189); assay: Inhibition of IL-6-induced gp130 phosphorylation in human U266 cells at 10 and 20 uM pre-incubated for 1 hr before IL-6 stimulation for 10 to 15 mins by Western blot analysis; assay type: cell-based
# T1 sequence (whole entry): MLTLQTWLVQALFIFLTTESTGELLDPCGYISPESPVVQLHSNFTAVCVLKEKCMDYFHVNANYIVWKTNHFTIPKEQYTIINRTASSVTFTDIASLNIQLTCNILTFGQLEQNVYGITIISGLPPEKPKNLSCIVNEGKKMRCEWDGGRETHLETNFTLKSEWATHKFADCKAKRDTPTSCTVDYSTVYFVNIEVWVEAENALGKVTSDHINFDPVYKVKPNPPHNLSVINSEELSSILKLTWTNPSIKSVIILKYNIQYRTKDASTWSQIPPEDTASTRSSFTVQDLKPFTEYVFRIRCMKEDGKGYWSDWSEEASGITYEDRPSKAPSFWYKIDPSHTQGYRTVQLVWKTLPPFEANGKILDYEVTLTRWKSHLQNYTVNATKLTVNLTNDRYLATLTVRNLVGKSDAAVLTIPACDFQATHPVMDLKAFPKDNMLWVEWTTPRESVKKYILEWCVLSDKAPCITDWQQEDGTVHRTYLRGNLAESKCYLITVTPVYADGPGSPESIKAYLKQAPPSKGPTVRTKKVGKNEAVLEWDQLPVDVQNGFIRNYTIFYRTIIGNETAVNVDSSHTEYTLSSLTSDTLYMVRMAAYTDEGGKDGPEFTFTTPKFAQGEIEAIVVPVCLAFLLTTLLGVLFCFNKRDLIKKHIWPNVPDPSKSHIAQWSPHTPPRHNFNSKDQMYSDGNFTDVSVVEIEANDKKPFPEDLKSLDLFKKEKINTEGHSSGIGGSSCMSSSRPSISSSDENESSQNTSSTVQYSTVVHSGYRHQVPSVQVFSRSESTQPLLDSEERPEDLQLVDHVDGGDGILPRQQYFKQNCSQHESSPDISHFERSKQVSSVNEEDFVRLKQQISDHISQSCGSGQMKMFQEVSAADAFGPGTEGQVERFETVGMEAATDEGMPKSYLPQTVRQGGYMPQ
# Hep 3B2 [3] = assay: Inhibition of IL-6-induced CRP gene expression in human Hep3B cells pre-incubated for 1 hr before IL-6 stimulation for 6 hrs by RT-PCR method; assay type: functional, cell-based
# [4] = biological target: Signal transducer and activator of transcription 3 (Homo sapiens) (UniProt P40763); assay: Inhibition of IL-6-induced STAT3 phosphorylation at Tyr 705 residue in human U266 cells at 10 to 20 uM pre-incubated for 1 hr before IL-6 stimulation for 15 mins by Western blot analysis; assay type: cell-based
# Sequence of Signal transducer and activator of transcription 3 (Homo sapiens) (P40763 whole entry): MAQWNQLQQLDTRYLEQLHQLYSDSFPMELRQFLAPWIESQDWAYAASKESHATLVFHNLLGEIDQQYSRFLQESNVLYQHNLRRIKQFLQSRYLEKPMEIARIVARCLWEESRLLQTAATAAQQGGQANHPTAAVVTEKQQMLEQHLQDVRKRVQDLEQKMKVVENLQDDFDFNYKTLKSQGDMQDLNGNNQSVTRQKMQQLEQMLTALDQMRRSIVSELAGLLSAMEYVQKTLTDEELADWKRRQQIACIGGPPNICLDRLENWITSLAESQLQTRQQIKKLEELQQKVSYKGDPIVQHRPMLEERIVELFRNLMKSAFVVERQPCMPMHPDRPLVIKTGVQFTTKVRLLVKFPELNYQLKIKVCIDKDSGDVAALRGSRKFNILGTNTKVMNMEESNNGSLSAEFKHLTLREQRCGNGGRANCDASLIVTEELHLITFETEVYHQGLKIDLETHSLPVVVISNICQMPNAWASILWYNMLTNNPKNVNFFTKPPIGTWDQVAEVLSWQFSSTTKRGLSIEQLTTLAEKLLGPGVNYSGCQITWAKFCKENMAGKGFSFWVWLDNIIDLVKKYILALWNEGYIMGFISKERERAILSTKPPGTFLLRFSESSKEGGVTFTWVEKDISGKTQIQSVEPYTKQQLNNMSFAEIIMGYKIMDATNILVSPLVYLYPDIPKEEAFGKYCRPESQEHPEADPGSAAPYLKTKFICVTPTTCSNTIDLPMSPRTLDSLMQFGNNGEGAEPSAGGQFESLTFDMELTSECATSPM
# [5] = biological target: Signal transducer and activator of transcription 3 (Homo sapiens) (UniProt P40763); assay: Inhibition of IL-6-induced pSTAT3 nuclear translocation in human U266 cells at 20 uM pre-incubated for 1 hr before IL-6 stimulation for 30 mins by DAPI staining based immunofluorescence microscopy; assay type: cell-based
# Hep 3B2 [6] = assay: Inhibition of IL-6-induced SOCS3 gene expression in human Hep3B cells pre-incubated for 1 hr before IL-6 stimulation for 6 hrs by RT-PCR method; assay type: functional, cell-based
# Hep 3B2 [7] = assay: Cytotoxicity against human Hep3B cells assessed as cell viability at 1 to 20 uM incubated for 24 hrs by MTT assay; assay type: cell-based; settings: hep 3b2, 24 h
# [8] = biological target: Tyrosine-protein kinase JAK2 (Homo sapiens) (UniProt O60674); assay: Inhibition of IL-6-induced JAK2 phosphorylation at Tyr1007/1008 residues in human U266 cells at 10 and 20 uM pre-incubated for 1 hr before IL-6 stimulation for 10 to 15 mins by Western blot analysis; assay type: cell-based
# Sequence of Tyrosine-protein kinase JAK2 (Homo sapiens) (O60674 whole entry): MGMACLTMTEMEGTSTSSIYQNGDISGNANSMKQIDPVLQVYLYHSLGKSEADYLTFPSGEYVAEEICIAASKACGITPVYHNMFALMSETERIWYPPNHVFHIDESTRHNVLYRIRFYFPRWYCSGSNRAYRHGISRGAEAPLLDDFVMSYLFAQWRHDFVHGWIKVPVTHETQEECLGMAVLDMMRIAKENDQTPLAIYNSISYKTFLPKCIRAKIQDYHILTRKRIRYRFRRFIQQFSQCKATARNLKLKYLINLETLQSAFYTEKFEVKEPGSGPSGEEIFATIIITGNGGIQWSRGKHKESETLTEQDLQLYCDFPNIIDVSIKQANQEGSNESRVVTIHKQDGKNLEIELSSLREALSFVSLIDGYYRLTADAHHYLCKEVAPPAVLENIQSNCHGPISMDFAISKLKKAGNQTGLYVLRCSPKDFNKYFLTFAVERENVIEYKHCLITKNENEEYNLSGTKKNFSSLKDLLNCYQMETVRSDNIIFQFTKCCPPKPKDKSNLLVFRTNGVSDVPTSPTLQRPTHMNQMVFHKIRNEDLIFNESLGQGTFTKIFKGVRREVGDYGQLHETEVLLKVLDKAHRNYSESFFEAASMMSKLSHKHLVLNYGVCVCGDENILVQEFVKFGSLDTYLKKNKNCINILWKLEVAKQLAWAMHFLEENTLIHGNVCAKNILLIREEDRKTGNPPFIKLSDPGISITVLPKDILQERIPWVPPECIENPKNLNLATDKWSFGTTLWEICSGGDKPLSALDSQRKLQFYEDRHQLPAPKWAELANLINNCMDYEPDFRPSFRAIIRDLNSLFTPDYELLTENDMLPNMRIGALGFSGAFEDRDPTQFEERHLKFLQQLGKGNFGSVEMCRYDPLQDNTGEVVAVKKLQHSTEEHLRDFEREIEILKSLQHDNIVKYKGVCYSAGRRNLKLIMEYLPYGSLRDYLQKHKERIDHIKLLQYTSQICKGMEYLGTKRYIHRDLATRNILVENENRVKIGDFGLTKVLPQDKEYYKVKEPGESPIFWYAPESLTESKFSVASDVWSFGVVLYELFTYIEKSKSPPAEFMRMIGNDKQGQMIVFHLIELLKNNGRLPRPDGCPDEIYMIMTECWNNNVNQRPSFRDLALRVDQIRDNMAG
# [9] = biological target: Signal transducer and activator of transcription 3 (Homo sapiens) (UniProt P40763); assay: Inhibition of IL6-induced STAT3 phosphorylation in human Hep3B cells incubated for 12 hrs in presence of IL6 by luciferase reporter gene assay; assay type: cell-based
# Hep 3B2 [10] = assay: Inhibition of IL-6-induced ICAM1 gene expression in human Hep3B cells pre-incubated for 1 hr before IL-6 stimulation for 6 hrs by RT-PCR method; assay type: functional, cell-based
# Homo sapiens [11] = species on record: Homo sapiens; assay: Inhibition of IL-6-induced ERK phosphorylation at Tyr202/204 residues in human U266 cells at 10 to 20 uM pre-incubated for 1 hr before IL-6 stimulation for 10 to 15 mins by Western blot analysis; assay type: cell-based
# Hep 3B2 [12] = assay: Inhibition of IL-6-induced IL-1beta gene expression in human Hep3B cells pre-incubated for 1 hr before IL-6 stimulation for 6 hrs by RT-PCR method; assay type: functional, cell-based
# [13] = biological target: Signal transducer and activator of transcription 3 (Homo sapiens) (UniProt P40763); assay: Inhibition of IL-6-induced pSTAT3 nuclear translocation in human Hep3B cells at 10 and 20 uM pre-incubated for 1 hr before IL-6 stimulation for 30 mins by DAPI staining based immunofluorescence microscopy; assay type: cell-based
smiles,measurement,setting,value
COc1cc2oc(-c3ccc(O)c(O)c3)cc(=O)c2c(O)c1OC [CIRSILIOL],inhibition,Homo sapiens [1],inactive
same,inhibition,[2],Dose-dependent effect
same,inhibition,Hep 3B2 [3],Dose-dependent effect
same,inhibition,[4],Active
same,inhibition,[5],Active
same,inhibition,Hep 3B2 [6],Dose-dependent effect
same,Activity,Hep 3B2 [7],Non-Toxic
same,inhibition,[8],Dose-dependent effect
same,inhibition,[9],Dose-dependent effect
same,inhibition,Hep 3B2 [10],Dose-dependent effect
same,inhibition,Homo sapiens [11],Active
same,inhibition,Hep 3B2 [12],Dose-dependent effect
same,inhibition,[13],Active
